Data published in patent US12509530B2, “Single domain antibodies directed against intracellular antigens” (Singh Molecular Medicine, LLC, priority 2015, dated 2025).
Values joined by “and” are separate entries in the source; they are usually repeats but may differ in a detail not shown here. Identical values can stand only once. Each block holds one molecule with its values, some of them ahead of it. Numbered stars: 1 amine (or outer) side, 2 acyl side, 3 side chain; on linkers, the order of the positions; unused ones are H or OH. Bridge positions count the residues as written; N and C are the ends. Square brackets hold non-standard residues; d marks the D form. Peptide text beside a SMILES is read from it. I, II: the chains in the order shown. Actinocin(9to1) = Cc1c2oc3c(C)ccc(C(=O)[*:1])c3nc-2c(C(=O)[*:2])c(N)c1=O; NMeV = CN[C@H](C(=O)O)C(C)C; Sar = CNCC(=O)O

How the values were obtained:
Human recombinant TNF-α = molecular target: T1, Human recombinant TNF-α (Homo sapiens, UniProt P01375); assay: Inhibition of TNF-α cytotoxicity in L929 cells (MTS/PMS); assay type: cell-based, mouse
T1 construct: purchased Sigma-Aldrich
T1 sequence (P01375 77-233 limits assumed): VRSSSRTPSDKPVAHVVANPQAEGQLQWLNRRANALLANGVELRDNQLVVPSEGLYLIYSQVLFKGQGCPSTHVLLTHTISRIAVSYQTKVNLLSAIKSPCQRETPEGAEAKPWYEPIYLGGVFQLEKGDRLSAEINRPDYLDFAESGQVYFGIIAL

STAT3 = STAT3 reporter GloResponse SIE-luc2P/HEK293 assay, IL-6 induction; assay type: cell-based, human; conditions: 24 and 48 hours treatment
SJSA-1 xenograft [1] = assay: SJSA-1 bone osteosarcoma subcutaneous xenograft model; conditions: SBT-100 5.0 mg/kg BIDx14, Doxorubicin 7.0 mg/kg days 1, 8, 14, IP
SJSA-1 xenograft [2] = conditions: mouse, in vivo
PANC-1 cells = assay: MTT proliferation assay, PANC-1; conditions: Homo sapiens, PANC-1, 72 h
MDA-MB-231 cells = assay: MTT proliferation assay, MDA-MB-231; assay type: cell-based, human; conditions: test article cloudy; cells lost normal morphology
[3] = molecular target: T2, active human TNF-α full length protein (Homo sapiens, UniProt P01375); assay: TNF-α binding ELISA; conditions: for detection in coated vs non-coated wells: 0.5 μg/mL coating antigen; for detection / binding to the TNF-α protein: Experiment 1
T2 construct: active human TNF-α full length protein; purchased Abcam
T2 sequence (P01375 77-233 limits assumed): as above
Method: In this Example, the binding of anti-TNF-α sdAbs to active human TNF-α full length protein was assessed using an enzyme linked immunosorbent assay (ELISA) format. Additionally, the feasibility of utilizing a secondary antibody targeted to the his tag portion of the sdAbs was assessed.
The test articles for this study were anti-TNF-α VHH62 (SEQ ID NO:47) sdAb, TNF-α VHH66 (SEQ ID NO:45) sdAb, and anti-TNF-α VHH69 (SEQ ID NO:46) sdAb (Experiment 1).
For the assays to assess the binding of the sdAbs to TNF-α protein (Experiment 1, 4 and 5), a standard sandwich ELISA format was utilized. […] Plates were incubated overnight at 2-8° C. After the incubation, plates were washed (3×) and blocked (3% Bovine Serum Albumin (BSA) in Phosphate Buffered Saline (PBS)) for at least one hour at room temperature.
After removal of the blocking buffer and washing (3×), samples were added to the appropriate wells of the ELISA plates and incubated at room temperature with shaking (150 rpm) for at least one hour. The secondary antibody (rabbit anti-llama biotinylated antibody at either a1:5,000 or 10,000 dilution) was then added to each well and incubated with shaking for at least one hour at room temperature.
After the incubation with secondary antibody, the plates were again washed (3×) and horseradish peroxidase (HRP) at either a 1:25,000 or 1:50,000 dilution was added to each well. Plates were incubated with shaking for at least one hour at room temperature. A final wash (3×) was performed followed by the addition of TMB (Tetramethylbenzidine) substrate. After a 20 to 25 minute incubation at room temperature, stop solution was added to halt the colorimetric reaction. The absorbance at 450 nm was measured on a VersaMax instrument utilizing SoftMax Pro GxP version 5.4 software from Molecular Devices (Sunnyvale, CA).
The final experiment performed was to confirm that the results from the ELISA testing were due to binding to the TNF-α protein and not non-specific binding of the sdAb. For this determination, a comparison was made between wells coated with 0.5 μg/mL of coating antigen and non-coated wells. […] This experiment confirms that the detection seen with the previous experiments was due to the specific binding of the VHH to the coating antigen and not due to non-specific binding.

Molecule: Cc1c2oc3c(C)ccc(C(=O)N[C@@H]4C(=O)N[C@H](C(C)C)C(=O)N5CCC[C@H]5C(=O)N(C)CC(=O)N(C)[C@@H](C(C)C)C(=O)O[C@@H]4C)c3nc-2c(C(=O)N[C@@H]2C(=O)N[C@H](C(C)C)C(=O)N3CCC[C@H]3C(=O)N(C)CC(=O)N(C)[C@@H](C(C)C)C(=O)O[C@@H]2C)c(N)c1=O [Actinomycin D] (I: T[dV]P[Sar][NMeV] / II: T[dV]P[Sar][NMeV]; ester I:1-I:C, II:1-II:C; linker I:N-II:N via Actinocin(9to1))
% Toxicity, Sample Replicate # (Human recombinant TNF-α; Assay 1 control, Actinomycin D only (no TNFα)): 5.4% and 2.3% and 3.5% and 0% (8×)
% Toxicity, Sample Replicate # (Human recombinant TNF-α; Assay 2 control, Actinomycin D only (no TNFα)): 0%

Molecule: CC(=O)c1cc2c(o1)C(=O)c1ccccc1C2=O [BB1608, napabucasin, reference compound]
effect on IL-6 induction of the reporter (STAT3): Inhibition of IL-6

Molecule: COc1cccc2c1C(=O)c1c(O)c3c(c(O)c1C2=O)C[C@@](O)(C(=O)CO)C[C@@H]3O[C@H]1C[C@H](N)[C@H](O)[C@H](C)O1 [Doxorubicin, reference compound]
Tumor measurement, individual animals (SJSA-1 xenograft [1]; day 8 post implant): 0.00 mm^3
Tumor measurement, Mean Abs (SJSA-1 xenograft [1]; day 13 post implant): 70.72 mm^3
Tumor measurement, individual animals (SJSA-1 xenograft [1]; day 23 post implant): 116.85 mm^3
number of surviving at the end of the study (SJSA-1 xenograft [2]; Hsd: Athymic Nude-Fox1nu): 2
Are the survival curves sig different? (SJSA-1 xenograft [2]): Yes

Molecule: Nc1ccn([C@@H]2O[C@H](CO)[C@@H](O)C2(F)F)c(=O)n1 [Gemcitabine]
inhibition at 0.313 µM (PANC-1 cells; read-out: % Inh, Gemcitabine Hydrochloride (Biovision #1759) 0.313 μM, 72 hours): 0%
inhibition at 0.625 µM (PANC-1 cells; read-out: % Inh, Gemcitabine Hydrochloride (Biovision #1759) 0.625 μM, 72 hours): 2%
inhibition at 5 µM (PANC-1 cells; read-out: % Inh, Gemcitabine Hydrochloride (Biovision #1759) 5 μM, 72 hours): 36%
inhibition at 10 µM (PANC-1 cells; read-out: % Inh, Gemcitabine Hydrochloride (Biovision #1759) 10 μM, 72 hours): 46%

Molecule: MPT His Tag: anti-STAT3 VHH13 (SBT-100) preparation produced by Microprotein Technologies, His tagged
inhibition compared with the other SBT-100 preparations (MDA-MB-231 cells): greatest inhibition

Molecule: TNFa
% Toxicity, Sample Replicate # (Human recombinant TNF-α; Assay 1 control, TNFa 0.5 μg/mL): 101.9% and 101.6% and 101.8% (3×) and 102.1% (4×) and 102.6% and 102.7% and 101.7%

detection / binding to the TNF-α protein ([3]; 1 μg/mL sdAb): little to no detection
B1: anti-TNF-α VHH69: anti-TNF-α sdAb, SEQ ID NO:46 (TNF_69, SEQ ID NO: 64) (protein)
VHH: EVQLVESGGGSVLAGGSLRLSCVASGFTSRYNYMAWFRQAPGKEREGVATIGTASGSADYYGSVKDRFTISQDNAKNTVYLQMNSLKPEDTAMYYCAARTYGTISLTPSDYRYWGQGTLVTVSS
modifications: Camelid
effect on IL-6 induction of the reporter (STAT3): enhancement of the IL-6 induction
detection in coated vs non-coated wells ([3]; 1 μg/mL sdAb): detected in coated wells but not in non-coated wells

detection / binding to the TNF-α protein ([3]; 1 μg/mL sdAb): little to no detection
OD values ([3]; Experiment 4, 10-fold serial dilutions, old and new batch): < 0.2 OD450
OD450 Values, Non-Coated ([3]; non-coated wells (non-specific binding), 1 μg/mL sdAb): −0.001
B2: anti-TNF-α VHH62: anti-TNF-α sdAb, SEQ ID NO:47 (TNF_62, SEQ ID NO: 66) (protein)
VHH: QVQLVESGGGPVQAGETLRLSCTASGFTFAEADMGWYRQAPGHECELVSTITTEGITSEASSYYADSVRGRFTISRDNAKNMVYLQMNSLKPEDTAVYYCAPDPYAYSTYSDYCSWAQGTQGTLVTVSS
modifications: Camelid
detection in coated vs non-coated wells ([3]; 1 μg/mL sdAb): not detected in either coated or non-coated wells

B3: anti-STAT3 VHH14: anti-STAT3 single domain antibody, SEQ ID NO:4 (same sequence as STAT3_14, SEQ ID NO: 8) (protein)
VHH: QVQLVESGGGSVQAGGSLRLSCVASTYTGCMGWFRQAPGKEREGVAALSSRGFAGHYTDSVKGRFSISRDYVKNAVYLQMNTVKPEDAAMYYCAAREGWECGETWLDRTAGGHTYWGQGTLVTVSS
modifications: Camelid
effect on IL-6 induction of the reporter (STAT3): enhancement of the IL-6 induction
